The values below come from PubChem BioAssay (NCI).

Values joined by “and” are separate entries in the source; they are usually repeats but may differ in a detail not shown here. Identical values can stand only once.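 A five-concentration, 48-hour dose response in 96-well plates underlies each endpoint, interpolated linearly between surrounding concentrations. GI50 marks 50% less growth. TGI marks complete inhibition of growth.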

What all share (assay): NCI-60 cell line screen, 48 h
For assay [1], the system named is CCRF-CEM leukemia.
Assay [2] relates to COLO 205 colon.
Assay [3] concerns LOX IMVI melanoma.
The test system of assay [4] is MDA-MB-231 breast.
Assay [5] deals with MDA-MB-435.
The test system of assay [6] is NCI/ADR-RES ovarian.
Assay [7] relates to OVCAR-3 ovarian.
The test system of assay [8] is SF-539 CNS.
Assay [9] has as its system TK-10 renal.
Assay [10] deals with NCI-H460 lung.

Turning to `O=C(c1ccccn1)C1(N2CCCCC2)CCCCC1`, the TGI in assay [1], in [2], in [3], in [4], in assay [5] and in [6] was over 100 µM in each case. Further, the TGI in assay [7], in assay [8] and in assay [9] was over 100 µM in each case.

Regarding `CCC(=O)NCC1CCCN2CCCCC12` (stereo unspecified), the TGI in assay [1], in assay [2], in assay [3], in assay [4], in assay [5] and in [10] was over 100 µM in each case. Besides, the TGI in assay [6], in [8] and in assay [9] was over 100 µM in each case.

Regarding `O=C(C1OC1c1ccc(Br)cc1O)C12CC3CC(CC(C3)C1)C2` (stereo unspecified), the TGI in assay [1] is over 100 µM; in assay [3] it was 28.7 µM; in assay [4] it was 43.6 µM; in assay [5], 30.4 µM; in assay [10], 85.2 µM; in assay [6], over 100 µM. Moreover, the TGI in assay [7] is 84.6 µM; in [8], over 100 µM; in [9] it was over 100 µM.

Turning to `O=S(=O)(c1ccccc1)c1cccc2c1NCCC2`, the TGI in assay [1] is over 100 µM; in [2], over 10 µM; in assay [3], over 100 µM; in [4] it was over 100 µM; in assay [5], over 100 µM; in assay [10] it was over 100 µM. Besides, the TGI in [6], in assay [7], in assay [8] and in [9] was over 100 µM each time.

For the molecule `c1ccc2c(c1)Cn1c-2nc2ccccc21`, the TGI in assay [1], in assay [2], in [3], in assay [4], in assay [5] and in assay [10] was over 100 µM each time. Moreover, the TGI in assay [6], in [7], in [8] and in assay [9] was over 100 µM throughout.

For `Nc1nc2c(c(-c3cccc(Cl)c3)n1)COC/C2=C\c1cccc(Cl)c1`, the TGI in assay [1], in [2], in [3], in [4], in assay [5] and in [10] was over 100 µM in each case. The TGI in assay [6], in assay [7], in [8] and in assay [9] was over 100 µM throughout.

With `Cc1ccc(-c2cc(-c3ccco3)c(C#N)c(=S)n2C2OC(CO)C(O)C(O)C2O)cc1` (stereo unspecified), the GI50 in assay [1] is 23.2 µM; in [3], 8.19 µM and 43.1 µM; in assay [4], 8.83 µM and 24 µM; in [6], 33.8 µM and > 100 µM; in [8], 11.5 µM and 37.2 µM. Further, the TGI in [1] is 99.1 µM; in assay [2], over 100 µM; in [3], 38.4 µM and > 100 µM; in assay [4], 35.4 µM and 88.1 µM; in assay [5], over 100 µM; in assay [10], over 100 µM. The TGI in assay [6] is over 100 µM; in [7], 55.9 µM and 90.7 µM; in [8], 28 µM and > 100 µM; in assay [9], over 100 µM.

Regarding `C=C1CCN2CC[C@@H](OC(=O)/C(C)=C\C)[C@@H]12`, the TGI in [1], in assay [2], in assay [3], in assay [4], in assay [5] and in assay [10] was over 100 µM throughout. Also, the TGI in assay [6], in assay [7], in assay [8] and in [9] was over 100 µM in each case.

On to `COc1ncc(/C=C2\OC(=O)c3ccccc32)c(OC)n1`, for which the TGI in assay [1], in assay [2], in assay [3], in assay [4], in assay [5] and in [10] was over 100 µM in each case. The TGI in assay [6], in [7], in assay [8] and in assay [9] was over 100 µM throughout.

With `Cc1cccc(Cn2c3c(c4cc(O)ccc42)C(=O)c2ccccc2C3=O)c1`, the TGI is over 100 µM in [1]; over 100 µM in [2]; over 100 µM in assay [3]; over 70.8 µM in assay [4]; over 100 µM in assay [5]; over 100 µM in assay [10]. Besides, the TGI in assay [6] is over 67.8 µM; in assay [7] it was over 31.6 µM; in assay [8] it was 26.9 µM; in [9] it was over 100 µM.

As to `[N-]=[N+]=NC(c1ccccc1)(c1ccccc1)c1ccccc1`, the TGI in assay [1] was found to be 55.4 µM; in assay [2], 27.8 µM; in [3] it was 45.3 µM; in assay [4] it was 31.2 µM; in assay [5], 44 µM; in [10], 33 µM. Further, the TGI in assay [6] was determined as 34.1 µM; in assay [7] it was 42.5 µM; in assay [8] it was 31 µM; in assay [9] it was 32.4 µM.

Consider `C[C@]12CC[C@H](O)CC1=CC[C@@H]1[C@@H]2CC[C@]2(C)C(=N/N)/C(=N\O)C[C@@H]12`, for which the TGI is over 100 µM in assay [1]; over 100 µM in assay [2]; over 100 µM in assay [3]; over 100 µM in [4]; 5 µM in [5]; over 100 µM in assay [6]. Further, the TGI in [7], in [8] and in assay [9] was over 100 µM throughout.

On to `CC1=Nc2ccccc2OC(C)=C1N=Nc1ccc2nc(C)[nH]c2c1`, for which the TGI in assay [1], in [2], in assay [3], in assay [4], in assay [5] and in [10] was over 100 µM in each case. Also, the TGI in assay [6], in assay [7], in [8] and in [9] was over 100 µM each time.

On to `C(=C(c1ccc(OC2CCCCO2)cc1)c1ccc(OC2CCCCO2)cc1)c1ccccc1` (stereo unspecified), for which the TGI in assay [1] was found to be 6.66 µM; in assay [2], 1.6 µM; in assay [3], 1.14 µM; in [4], 1.52 µM; in assay [5], 1.7 µM; in assay [10] it was 1.79 µM. Further, the TGI was determined as 2.92 µM in assay [6], 1.75 µM in assay [7], 3.24 µM in [8] and 2.35 µM in assay [9].
